Experimental data: patent US12698260B2, “Solid state form of centanafadine HCL and process for preparation thereof” (ASSIA CHEMICAL INDUSTRIES LTD., priority 2021, dated 2026)

Tests used:
[1] = Solid-state stability upon storage and processing; conditions: storage and processing (e.g. grinding, pressure, heat, humidity)
[2] = Solubility over a range of pH; conditions: over a wide range of pH; comparator not stated

Which “stability of the crystalline form upon storage and processing” value [1] does the source give for `c1ccc2cc([C@]34CNC[C@H]3C4)ccc2c1` [(1R,5S)-1-naphthalen-2-yl-3-azabicyclo[3.1.0]hexane] here?
The value was “stable crystalline Form upon storage and processing”.

And the solubility [2]?
Its solubility is “improved solubility”.
